Molecular target: DP IV (Homo sapiens, UniProt P27487)
Test: DP IV inhibition IC50, parallel-synthesis compounds tested directly following synthesis (without purification)
Assay type: biochemical
Parameters: IC50 DP4; other: tested directly following parallel synthesis, without purification; compounds of formula (Ib) from parallel synthesis, tested directly following synthesis
Settings: DP IV inhibition; compounds of formula (Ib) from parallel synthesis, tested directly following synthesis (without purification); read-out: IC50
Method: Compounds were immediately tested regarding their activity as DP IV inhibitors.
Substances are screened for inhibition of dipeptidyl peptidase (DP IV) by their ability to inhibit the hydrolysis of the DP IV specific substrate Glycyl-Prolyl-4-Nitroanilide (Gly-Pro-pNA). All compounds are diluted in DMSO and IC50 will be determined with 11 serial dilutions (1:2) starting with an final concentration of 100 μM. The final DMSO concentration in the assay is 5% (v/v). The method was automated using a Tecan Genesis Freedom liquid handler and a Genius Pro (Tecan) microplate reader.
DP IV from porcine kidney (pDP IV) or recombinant human DP IV (rhDP IV) is diluted in HEPES buffer to a final activity of approximately 40-50 μU*ml^−1. The DP IV is stored in a cooling rack (4° C.) on the liquid handler.
The assay may becarried out at room temperature using Freedom liquid handler connected with a Genios Pro microplate reader. Each sample is measured in duplicate. Each sample stock solution is prediluted with DMSO in a ratio of 1:5 in a polypropylen 96-well plate. From this predilution 10 serial (1:2) dilutions in DMSO are prepared. 13.5 μl of the 11 DMSO dilutions and DMSO alone are transferred to the measurement microplate (duplicates) and 86.5 μl water, 100 μl HEPES buffer and 50 μl substrate solution are added to each well. The enzymatic reaction is started by addition of 20 μl enzyme solution to each well, and then the microplate is immediately transferred to the microplate reader.
After short mixing (20 s) the release of 4-Nitroanilin (pNA) is monitored at 405 nm for 30 cycles (approx. 18 min).
Post assay calculations are done by the Magellan (Tecan) and Graphit Software. The linear slopes are calculated for each well and averaged for the duplicates. The residue activities are calculated in relation to a sample containing only solvent instead of inhibitor and expressed in %. Residue activities are plotted against the log of inhibitor concentrations and IC50 is calculated by an 4-parameter fitting ranging from 0 to 100%.

Row | IC50 [µM] | Structure (SMILES)
1 | 28.9 | CC(N)c1c(-c2ccc(Cl)cc2Cl)ncn1CCc1cccc(Cl)c1 (stereo not drawn) [64b, 1-[3-[2-(3-Chloro-phenyl)-ethyl]-5-(2,4-dichloro-phenyl)-3H-imidazol-4-yl]-ethylamine]
2 | 2.8 | NCc1c(-c2ccc(Cl)cc2Cl)ncn1CCC1=CCCCC1 [65b, C-[3-(2-Cyclohex-1-enyl-ethyl)-5-(2,4-dichloro-phenyl)-3H-imidazol-4-yl]-methylamine]
3 | 11.8 | Cc1ccc(Cn2cnc(-c3ccc(Cl)cc3Cl)c2CN)cc1 [66b, C-[5-(2,4-Dichloro-phenyl)-3-(4-methyl-benzyl)-3H-imidazol-4-yl]-methylamine]
4 | 28.9 | CC(N)c1c(-c2ccc(Cl)cc2Cl)ncn1Cc1ccccc1Cl (stereo not drawn) [67b, 1-[3-(2-Chloro-benzyl)-5-(2,4-dichloro-phenyl)-3H-imidazol-4-yl]-ethylamine]
5 | 26.2 | CC(N)c1c(-c2ccc(Cl)cc2Cl)ncn1Cc1ccc(F)c(F)c1 (stereo not drawn) [68b, 1-[5-(2,4-Dichloro-phenyl)-3-(3,4-difluoro-benzyl)-3H-imidazol-4-yl]-ethylamine]
6 | 19 | CCNCCn1cnc(-c2ccc(Cl)cc2Cl)c1CN [69b, {2-[5-Aminomethyl-4-(2,4-dichloro-phenyl)-imidazol-1-yl]-ethyl}-ethyl-amine]
7 | 20.8 | CC(O)Cn1cnc(-c2ccc(Cl)cc2Cl)c1CN (stereo not drawn) [72b, 1-[5-Aminomethyl-4-(2,4-dichloro-phenyl)-imidazol-1-yl]-propan-2-ol]
8 | 23.5 | NCc1c(-c2ccc(Cl)cc2Cl)ncn1Cc1ccc(-c2ccccc2)cc1 [75b, C-[3-Biphenyl-4-ylmethyl-5-(2,4-dichloro-phenyl)-3H-imidazol-4-yl]-methylamine]
9 | 10 | COc1cccc(Cn2cnc(-c3ccc(Cl)cc3Cl)c2C(C)N)c1 (stereo not drawn) [76b, 1-[5-(2,4-Dichloro-phenyl)-3-(3-methoxy-benzyl)-3H-imidazol-4-yl]-ethylamine]
10 | 7.3 | NCc1c(-c2ccc(Cl)cc2Cl)ncn1Cc1ccc(Cl)c(Cl)c1 [77b, C-[3-(3,4-Dichloro-benzyl)-5-(2,4-dichloro-phenyl)-3H-imidazol-4-yl]-methylamine]
11 | 15.4 | NCc1c(-c2ccc(Cl)cc2Cl)ncn1Cc1ccc(Cl)cc1 [82b, C-[3-(4-Chloro-benzyl)-5-(2,4-dichloro-phenyl)-3H-imidazol-4-yl]-methylamine]
12 | 5.5 | NCc1c(-c2ccc(Cl)cc2Cl)ncn1CCc1ccccc1F [83b, C-{5-(2,4-Dichloro-phenyl)-3-[2-(2-fluoro-phenyl)-ethyl]-3H-imidazol-4-yl}-methylamine]
13 | 24.4 | NCc1c(-c2ccc(Cl)cc2Cl)ncn1CCc1ccccn1 [85b, C-[5-(2,4-Dichloro-phenyl)-3-(2-pyridin-2-yl-ethyl)-3H-imidazol-4-yl]-methylamine]
14 | 17.2 | CCCn1cnc(-c2ccc(Cl)cc2Cl)c1CN [86b, C-[5-(2,4-Dichloro-phenyl)-3-propyl-3H-imidazol-4-yl]-methylamine]
15 | 8.2 | Cc1[nH]ncc1CCCn1cnc(-c2ccc(Cl)cc2Cl)c1CN [87b, C-{5-(2,4-Dichloro-phenyl)-3-[3-(5-methyl-1H-pyrazol-4-yl)-propyl]-3H-imidazol-4-yl}-methylamine]
16 | 1.9 | NCc1c(-c2ccc(Cl)cc2Cl)ncn1Cc1cccc(C(F)(F)F)c1 [89b, C-[5-(2,4-Dichloro-phenyl)-3-(3-trifluoromethyl-benzyl)-3H-imidazol-4-yl]-methylamine]
17 | 14.5 | NCCCc1c(-c2ccc(Cl)cc2Cl)ncn1CCc1ccccc1Cl [90b, 3-[3-[2-(2-Chloro-phenyl)-ethyl]-5-(2,4-dichloro-phenyl)-3H-imidazol-4-yl]-propylamine]
18 | 12.7 | NCc1c(-c2ccc(Cl)cc2Cl)ncn1CCCc1ccccc1 [91b, C-[5-(2,4-Dichloro-phenyl)-3-(3-phenyl-propyl)-3H-imidazol-4-yl]-methylamine]
19 | 35.2 | NCc1c(-c2ccc(Cl)cc2Cl)ncn1Cc1ccc(Cl)cc1Cl [93b, C-[3-(2,4-Dichloro-benzyl)-5-(2,4-dichloro-phenyl)-3H-imidazol-4-yl]-methylamine]
20 | 8.2 | NCc1c(-c2ccc(Cl)cc2Cl)ncn1Cc1ccncc1 [94b, C-[5-(2,4-Dichloro-phenyl)-3-pyridin-4-ylmethyl-3H-imidazol-4-yl]-methylamine]
21 | 2.8 | NCc1c(-c2ccc(Cl)cc2Cl)ncn1Cc1ccc(OC(F)(F)F)cc1 [97b, C-[5-(2,4-Dichloro-phenyl)-3-(4-trifluoromethoxy-benzyl)-3H-imidazol-4-yl]-methylamine]
22 | 27.1 | NCc1c(-c2ccc(Cl)cc2Cl)ncn1Cc1ccc(C(F)(F)F)cc1 [98b, C-[5-(2,4-Dichloro-phenyl)-3-(4-trifluoromethyl-benzyl)-3H-imidazol-4-yl]-methylamine]
23 | 34.3 | NCc1c(-c2ccc(Cl)cc2Cl)ncn1CCOc1ccccc1 [100b, C-[5-(2,4-Dichloro-phenyl)-3-(2-phenoxy-ethyl)-3H-imidazol-4-yl]-methylamine]

More lines, now with the values behind:

Row | Structure (SMILES) | IC50 [µM]
24 | CCCCCCn1cnc(-c2ccc(Cl)cc2Cl)c1C(C)N (stereo not drawn) [61b, 1-[5-(2,4-Dichloro-phenyl)-3-hexyl-3H-imidazol-4-yl]-ethylamine] | 40.6
25 | COc1ccc(Cn2cnc(-c3ccc(Cl)cc3Cl)c2[C@H](C)N)c(OC)c1 [62b, (S)-1-[5-(2,4-Dichloro-phenyl)-3-(2,4-dimethoxy-benzyl)-3H-imidazol-4-yl]-ethylamine] | 10
26 | CC(N)c1c(-c2ccc(Cl)cc2Cl)ncn1CCc1ccccc1Cl (stereo not drawn) [63b, 1-[3-[2-(2-Chloro-phenyl)-ethyl]-5-(2,4-dichloro-phenyl)-3H-imidazol-4-yl]-ethylamine] | 19
27 | CC(N)c1c(-c2ccc(Cl)cc2Cl)ncn1CCCc1ccccc1 (stereo not drawn) [70b, 1-[5-(2,4-Dichloro-phenyl)-3-(3-phenyl-propyl)-3H-imidazol-4-yl]-ethylamine] | 41.5
28 | CC(N)c1c(-c2ccc(Cl)cc2Cl)ncn1CCC1=CCCCC1 (stereo not drawn) [71b, 1-[3-(2-Cyclohex-1-enyl-ethyl)-5-(2,4-dichloro-phenyl)-3H-imidazol-4-yl]-ethylamine] | 35.2
29 | CC(N)c1c(-c2ccc(Cl)cc2Cl)ncn1CCc1ccccn1 (stereo not drawn) [73b, 1-[5-(2,4-Dichloro-phenyl)-3-(2-pyridin-2-yl-ethyl)-3H-imidazol-4-yl]-ethylamine] | 38.8
30 | NCCCc1c(-c2ccc(Cl)cc2Cl)ncn1CCNc1ccc([N+](=O)[O-])cn1 [74b, {2-[5-(3-Amino-propyl)-4-(2,4-dichloro-phenyl)-imidazol-1-yl]-ethyl}-(5-nitro-pyridin-2-yl)-amine] | 12.7
31 | CC(N)c1c(-c2ccc(Cl)cc2Cl)ncn1Cc1cccnc1 (stereo not drawn) [78b, 1-[5-(2,4-Dichloro-phenyl)-3-pyridin-3-ylmethyl-3H-imidazol-4-yl]-ethylamine] | 28
32 | NCCc1c(-c2ccc(Cl)cc2Cl)ncn1CCNc1ccc([N+](=O)[O-])cn1 [79b, {2-[5-(2-Amino-ethyl)-4-(2,4-dichloro-phenyl)-imidazol-1-yl]-ethyl}-(5-nitro-pyridin-2-yl)-amine] | 16.3
33 | COc1ccccc1Cn1cnc(-c2ccc(Cl)cc2Cl)c1C(C)N (stereo not drawn) [80b, 1-[5-(2,4-Dichloro-phenyl)-3-(2-methoxy-benzyl)-3H-imidazol-4-yl]-ethylamine] | 2.8
34 | CCCCCCn1cnc(-c2ccc(Cl)cc2Cl)c1CN [84b, C-[5-(2,4-Dichloro-phenyl)-3-hexyl-3H-imidazol-4-yl]-methylamine] | 1
35 | C[C@H](N)c1c(-c2ccc(Cl)cc2Cl)ncn1CCC(c1ccccc1)c1ccccc1 [88b, (S)-1-[5-(2,4-Dichloro-phenyl)-3-(3,3-diphenyl-propyl)-3H-imidazol-4-yl]-ethylamine] | 28
36 | COc1ccc(Cn2cnc(-c3ccc(Cl)cc3Cl)c2C(C)N)cc1OC (stereo not drawn) [95b, 1-[5-(2,4-Dichloro-phenyl)-3-(3,4-dimethoxy-benzyl)-3H-imidazol-4-yl]-ethylamine] | 19.9
37 | CC(N)c1c(-c2ccc(Cl)cc2Cl)ncn1Cc1ccccn1 (stereo not drawn) [96b, 1-[5-(2,4-Dichloro-phenyl)-3-pyridin-2-ylmethyl-3H-imidazol-4-yl]-ethylamine] | 14.5
38 | CC(C)CCCCCCn1cnc(-c2ccc(Cl)cc2Cl)c1CN [99b, C-[5-(2,4-Dichloro-phenyl)-3-(7-methyl-octyl)-3H-imidazol-4-yl]-methylamine] | 4.6
39 | C[C@H](N)c1c(-c2ccc(Cl)cc2Cl)ncn1CCc1c[nH]c2cc(Cl)ccc12 [101b, (S)-1-[3-[2-(6-Chloro-1H-indol-3-yl)-ethyl]-5-(2,4-dichloro-phenyl)-3H-imidazol-4-yl]-ethylamine] | 47.8
